{"source": "paper PMC4286469", "about": "(Cancer research, 2014)", "key": {"[1]": {"system": "SK-Mel5 melanoma cells", "experiment": "Viability/cytotoxicity of SK-Mel5 melanoma cells", "type": "cell-based, human", "conditions": "for viability of melanoma cells under continuous exposure: p53^WT SK-Mel5, (−)-Nutlin-3 10µM, MLN8237 1µM, 7 days, Fig. 1D, E"}, "[2]": {"experiment": "in vivo", "conditions": "C57Bl6, mouse, po, 30 mg/kg"}, "[3]": {"system": "patient-derived metastatic melanoma tumors", "conditions": "independent of BRAF and NRAS mutational status; ref [7]; cited from earlier work"}, "[4]": {"system": "B16F0 tumors", "experiment": "B16F0 tumors in immunodeficient NSG mice", "type": "in vivo", "conditions": "Fig. 4I"}, "[5]": {"conditions": "mouse, in vivo, po, 30 mg/kg"}, "[6]": {"system": "SK-Mel5 xenografts", "experiment": "Marker analysis of SK-Mel5 xenograft tumors", "type": "in vivo, BALB/C nu/Foxn1 athymic nude mice", "conditions": "for p53 induction/activation in tumors (Western blot): (−)-Nutlin-3 200mg/kg"}, "[7]": {"system": "B16F0 tumors", "experiment": "B16F0 tumors in syngeneic immunocompetent C57Bl/6 mice", "type": "in vivo"}, "[8]": {"system": "p53", "experiment": "p53 and p53 target levels in cultured p53^WT melanoma cells", "type": "cell-based, human", "conditions": "for accumulation of p53 and its transcriptional targets: p53^WT cells (SK-Mel5 and Hs294T), (−)-Nutlin-3 10µM, MLN8237 1µM, 5 days"}, "[9]": {"system": "SK-Mel5 cells", "type": "cell-based, human"}, "[10]": {"system": "cells with p53 knockout", "experiment": "Viability of cells with p53 knockout", "type": "cell-based", "conditions": "Fig. S2A"}, "[11]": {"experiment": "Plasma and tumor pharmacokinetics in B16F0 melanoma-bearing C57Bl6 mice", "conditions": "200 mg/kg oral"}, "[12]": {"system": "p53", "experiment": "p53 level and activity in p53^MUT SK-Mel28 cells", "type": "cell-based, human"}, "[13]": {"system": "non-resectable melanoma tumors driven by BRAF^V600E", "conditions": "patients; ref [1]–[5]; cited from earlier work"}}, "note": "Where a SMILES comes first, the peptide text is derived from it. The star is where a group is joined. Cbz = O=C(OCc1ccccc1)*; CH2F = FC*", "data": [{"compound": "COc1cc(Nc2ncc3c(n2)-c2ccc(Cl)cc2C(c2c(F)cccc2OC)=NC3)ccc1C(=O)O", "note": "[MLN8237]", "values": [{"measurement": "viability of melanoma cells under continuous exposure", "setting": "[1]", "value": "mostly cytostatic response"}, {"measurement": "AUC(0-t)", "setting": "[2]", "value": 42700, "unit": "ng·h/mL"}, {"measurement": "patient-derived metastatic melanoma tumors with markedly slowed growth", "setting": "[3]", "value": "> 75", "unit": "%"}, {"measurement": "clearance of necrotic areas in senescent tumors", "setting": "[4]", "value": "abrogated"}, {"measurement": "overall median MLN8237 AUC0–24hr, tumor tissue", "setting": "[5]", "value": 37.4, "unit": "µg·h/g"}, {"measurement": "p53 induction/activation in tumors (Western blot)", "setting": "[6]; MLN8237 30mg/kg daily", "value": "moderate induction of p53"}, {"measurement": "AURKA activity (auto-phosphorylation) in tumor lysates", "setting": "[6]; MLN8237 30mg/kg daily", "value": "inhibited AURKA activity"}, {"measurement": "tumor senescence (SA-β-Gal activity) and proliferation markers", "setting": "[6]; MLN8237 30mg/kg daily", "value": "inhibition of cancer cell proliferation and induction of senescence"}, {"measurement": "tumor growth", "setting": "[7]; (−)-Nutlin-3 200mg/kg twice daily, MLN8237 30mg/kg once a day, oral gavage", "value": "partially inhibited tumor growth"}, {"measurement": "CCL5 levels in melanoma cells and fibroblasts sorted from tumors (qRT-PCR)", "setting": "[7]; Fig. 5B", "value": "increased"}, {"measurement": "tumor necrosis (H&E)", "setting": "[7]; immunocompetent mice, Fig. 4G", "value": "striking absence of necrosis"}, {"measurement": "accumulation of p53 and its transcriptional targets", "setting": "[8]", "value": "induced p53 accumulation"}]}, {"compound": "COC(=O)C[C@H](NC(=O)[C@H](C)NC(=O)[C@@H](NC(=O)OCc1ccccc1)C(C)C)C(=O)CF", "note": "[pan-caspase inhibitor, Z-VAD-FMK] (Cbz-Val-Ala-Asp(OMe)-CH2F)", "values": [{"measurement": "effect of pan-caspase inhibitor on cytotoxic response to p53 activation", "setting": "[9]", "value": "did not interfere"}]}, {"compound": "(−)-Nutlin-3", "values": [{"measurement": "viability of cells with p53 knockout", "setting": "[10]", "value": "did not affect viability"}, {"measurement": "mitochondrial membrane potential (JC-1)", "setting": "[9]; (−)-Nutlin-3 10µM, MLN8237 1µM, 5 days", "value": "decrease in mitochondrial membrane potential"}, {"measurement": "cleavage of caspase 3", "setting": "[9]; Fig. S2C", "value": "not detected"}, {"measurement": "Apoptosis Inducing Factor (AIF) activation and translocation", "setting": "[9]; SK-Mel5, IF staining", "value": "induced activation, mitochondrial release and nuclear translocation"}, {"measurement": "apoptosis (Annexin V-FITC and PI staining)", "setting": "[9]; p53^WT melanoma cells, 10µM, 5 days", "value": "induced apoptosis"}, {"measurement": "cytotoxicity in senescent and non-senescent cells", "setting": "[1]; SK-Mel5, senescent (1 µM MLN8237 pre-treated) and non-senescent (vehicle pre-treated) cells, Fig. 1A, B", "value": "dose-dependent cytotoxicity"}, {"measurement": "viability of melanoma cells under continuous exposure", "setting": "[1]", "value": "killed p53^WT melanoma cells"}, {"measurement": "median (−)-Nutlin-3 AUC0–24hr, plasma", "setting": "[11]; plasma", "value": 292.7, "unit": "µg·h/mL"}, {"measurement": "median (−)-Nutlin-3 AUC0–24hr, tumor tissue", "setting": "[11]; tumor tissue", "value": 455.6, "unit": "µg·h/mL"}, {"measurement": "level and activity of p53", "setting": "[12]", "value": "unaffected"}, {"measurement": "p53 induction/activation in tumors (Western blot)", "setting": "[6]; MLN8237 30mg/kg daily", "value": "modest"}, {"measurement": "tumor cells showing induction of apoptosis marker AIF", "setting": "[6]; Fig. 3C", "value": "no more than 15%"}, {"measurement": "tumor cells with elevated/strong p53 staining", "setting": "[6]; Fig. S3, untreated control tumors 3–6%", "value": 11, "unit": "%"}, {"measurement": "p53 levels in tumors", "setting": "[7]; IF staining, Fig. 4D", "value": "not strongly induced"}, {"measurement": "cells showing strong p53 induction in vitro", "setting": "[8]; in vitro, Fig. S2B", "value": 100, "unit": "%"}, {"measurement": "accumulation of p53 and its transcriptional targets", "setting": "[8]", "value": "induced accumulation of p53 and its transcriptional targets p21, PUMA, BAX and MDM2"}]}, {"compound": "CC(C)(C)c1nc(-c2cccc(NS(=O)(=O)c3c(F)cccc3F)c2F)c(-c2ccnc(N)n2)s1", "note": "[dabrafenib]", "values": [{"measurement": "median progression-free survival", "setting": "[13]", "value": 6, "unit": "months"}]}]}
